The text below walks through data of BindingDB's records for doi:10.1016/j.bioorg.2014.02.002 (Swami Ramanand Teerth Marathwada University, 2014).

This experiment has as its target Aldose reductase (Capra hircus). The experiment can be described thus: The reaction mixture contained 1 mL of 1 M potassium phosphate buffer (pH 6.2), 0.4 mM lithium sulfate and 5 µM 2-mercaptoethanol, 10 µM DL-glyceraldehyde, […], and crude enzyme. The reaction mixture was incubated at 37 °C for 10 min. The reaction was initiated by the addition of NADPH and the decrease in absorbance was measured a.

pIC50: −log10 of the molar value. Several values for one entry are separate records, joined by “and”; a condition that tells them apart may be missing. Identical values can stand only once.

On to `COc1ccc(-c2cc(C=C3C(=O)N(C(N)=S)N=C3N)n(-c3ccccc3)n2)cc1` [(4Z)‐3‐amino‐4‐{[5‐(4‐methoxyphenyl)‐2‐ phenylpyrazol‐3‐yl]methylidene}‐5‐oxopyrazole‐1‐ carbothioamide (2d)], for which the pIC50 (commonly −log10 of the IC50, conventionally taken in molar units) was 5.09. As for `NC(=S)N1N=C(N)C(=Cc2cn(-c3ccccc3)nc2-c2ccc(Cl)cc2)C1=O` [(4E)‐3‐amino‐4‐{[3‐(4‐chlorophenyl)‐1‐ phenylpyrazol‐4‐yl]methylidene}‐5‐oxopyrazole‐1‐ carbothioamide (2e)], the figure is 5.20; as for `NC1=NNC(=O)C1=Cc1cn(-c2ccccc2)nc1-c1ccc(Cl)cc1` [(4E)‐5‐amino‐4‐{[3‐(4‐chlorophenyl)‐1‐ phenylpyrazol‐4‐yl]methylidene}‐2H‐pyrazol‐3‐one (1e)], 5.04. In the case of `NC(=S)N1C=C(N)C(=Cc2ccc(F)cc2)C1=O` [(3Z)‐4‐amino‐3‐[(4‐methoxyphenyl)methylidene]‐2‐ oxopyrrole‐1‐carbothioamide (2c)], the pIC50 is 4.92 and 4.89.
